Data on two molecules can be found in patent US20080138326A1, “Method for cancer treatment, carcinogenesis suppression or mitigation of adverse reactions of anticancer agents” (Kaneka Corporation, priority 2006, published 2008).

Data set [1] has as its system Human breast cancer-derived cells (MCF-7). As to the kind of experiment: Suppressive effect on cell activation in cancer-derived cells (intracellular ATP content). The class given is cell-based. Particulars: 24 hours; for intracellular ATP content compared with control group: 80 μg/ml, Tween 80 control = 100%, P<0.0011. The protocol:
The reduced coenzyme Q10 obtained in Production Example 1 and the oxidized coenzyme Q10 used as a raw material in Production Example 1 were respectively dissolved in undiluted Tween 80 (MP Biomedicals) to give test samples.
Human breast cancer-derived cells (MCF-7, supplied by ATCC) were cultured in a Dulbecco's modified MEM medium (GIBCO) supplemented with 200 U of penicillin, […] streptomycin, and 10% fetal bovine serum at 37° C. in the presence of 5% CO2. After becoming confluent, the cells were sown to a 96-well microplate (IWAKI) at 2.0×10^4 cells per well. Twenty-four hours after the sowing, the medium was replaced with a Dulbecco's modified MEM medium containing 0.5% fetal bovine serum, and the above test samples were added to said medium such that the concentrations of Tween 80 were to be […], 0.025 and 0.05% (the concentrations of the reduced coenzyme Q10 or oxidized coenzyme Q10 in the medium were 20, 40 and 80 μg/ml). Tween 80 alone was added to the Dulbecco's modified MEM medium containing 0.5% fetal bovine serum such that the concentrations were to be the same, and the resulting solution was used as a control. Twenty-four hours later, the medium was removed, and the microplate was washed with PBS (GIBCO), after which intracellular ATP contents were determined using an ATP assay kit (Perkin-Elmer) and compared. The results are shown in FIG. 2, where the determined intracellular ATP amount for the control sample is given a value of 100% and the determined intracellular ATP amounts for the test samples were compared to this value.

Data set [2] relates to Normal human skin fibroblasts (NHDF). As to the kind of experiment: Promotive effect on cell activation in skin fibroblasts (intracellular ATP content). The settings on record: 48 hours; for ATP level: HCO-60 solvent; for intracellular ATP levels compared with solvent control: 0.12 and 0.98 μg/ml. The class given is cell-based. The protocol: The reduced coenzyme Q10 obtained in Production Example 1 and the oxidized coenzyme Q10 used as a raw material in Production Example 1 were respectively dissolved in undiluted HCO-60 (polyoxyethylene hydrogenated castor oil, Nihon Surfactant Kogyo K.K.) to give test samples.
Normal human skin fibroblasts (NHDF, Kurabo Industries) were cultured in a Medium 106S basal medium (Kurabo Industries) supplemented with 2% fetal bovine serum, 10 μg/ml heparin, 1 μg/ml hydrocortisone, 10 ng/ml human recombinant […], and human recombinant basic fibroblast growth factor 3 ng/ml, at 37° C. in the presence of 5% CO2. After becoming confluent, the cells were sown to a 96-well microplate at 2.0×10^3 cells per well. The medium used at the time of cell sowing was a Medium 106S (Kurabo Industries, Ltd.) supplemented with 2% fetal bovine serum, 10 μg/ml heparin, and 1 μg/ml hydrocortisone. After cultivation for 24 hours, the test samples were replaced with the same medium added with the oxidized or reduced coenzyme Q10 such that the concentrations were to be 0.12 and 0.98 μg/ml, and the cells were further cultured for 48 hours. The same amount of HCO-60 alone was added to the medium, and the resulting solution was used as a control. The medium was then removed, and the microplate was washed with PBS (GIBCO), after which intracellular ATP contents were determined using an ATP assay kit (Perkin-Elmer) and compared.
For statistical analysis, a parametric multiple comparison (Tukey type) was performed. In comparison with the solvent-only control group, * indicates a significance level of less than 5%, and ** indicates a significance level of less than 1%. In comparison with oxidized coenzyme Q10, † indicates a significance level of less than 5%.

For the next data set, the system named is rats. Particulars: 1.2 g/kg/day for 52 consecutive weeks; cited from earlier work.
For data set [3], the system named is aberrant crypt foci (ACF) in the rat large intestine. As to the kind of experiment: Rat colorectal carcinogenesis model (azoxymethane-initiated aberrant crypt foci). The class given is in vivo. The settings on record: four weeks; for Number of ACFs, 1 crypt, percent of control group / Number of ACFs, 2 crypts, percent of control group / Number of ACFs, 3 crypts, percent of control group / Number of ACFs, 4 crypts or more, percent of control group / Total ACF number/large intestine specimen, percent of control group / Total ACs number/large intestine specimen, percent of control group: control group = 100%; for Mean ACs number/focus / Number of ACFs formed in the large intestine, 1 crypt / Number of ACFs formed in the large intestine, 2 crypts / Number of ACFs formed in the large intestine, 3 crypts / Number of ACFs formed in the large intestine, 4 crypts or more / Total ACF number/large intestine specimen / Total ACs number/large intestine specimen: mean ± standard deviation. How it is done: To examine the effect of reduced coenzyme Q10 on carcinogenesis, a test was performed using a rat colorectal carcinogenesis model. This test method represents a rodent model of two-stage carcinogenesis, targeting the rat large intestine. Because carcinogenesis research using this test method is widely conducted for screening for cancer prophylactic agents and other purposes, the test results are sufficiently reliable.
Twenty-seven male F344 rats at 6 weeks of age were divided into three groups (9 animals/group) by computer-based randomized block design in a way such that no statistically significant difference would be produced in mean body weight. For initiation treatment for colorectal carcinogenesis, each rat was given azoxymethane (AOM) by subcutaneous administration at a dose of 15 mg/kg body weight once weekly for two weeks.
Starting on the day before administration of AOM, reduced coenzyme Q10 in solution in vehicle (olive oil) at a concentration of 20 or 50 mg/ml was given by gavage at doses of 0 (control group, group 1), 20, and 50 mg/kg (groups 2 and 3) on consecutive days for four weeks. The control group (group 1) received only the vehicle for administering reduced coenzyme Q10.
Four weeks after initial administration of reduced coenzyme Q10, all rats were autopsied, and the large intestine (colon and rectum, excluding the cecum) was extirpated. The large intestine with its ends ligated was fixed with injected 10% neutrally buffered formalin solution, after which the large intestine was incised and applied over filter paper flatly. Subsequently, the large intestine was post-fixed with 10% neutrally buffered formalin solution. After fixation, the large intestine was stained with 0.2% Methylene Blue solution in physiological saline for about 10 minutes, and the mucosal surface of the large intestine was examined using a stereomicroscope, whereby aberrant crypt foci (ACF), a form of precancerous lesion in colorectal cancer, were counted.
ACF was counted and classified by number of crypts present therein. Data were obtained as total ACF number per large intestine (colon and rectum) specimen, total crypt number per large intestine specimen, and mean crypt number per ACF (Table 2).
Furthermore, total ACF number per large intestine specimen was calculated according to the number of crypts in each ACF (Table 3).
For statistical analysis, Bartlett's homogeneity test was performed to compare group 1 and groups 2 and 3. […] In the case of non-homogenous dispersion, Dunnett's multiple comparison test based on a non-parametric approach (joint ranking method) was performed.

For data set [4], the system named is Normal human skin fibroblasts (NHDF). As to the kind of experiment: Suppressive effect on LDL-induced cell proliferation (BrdU incorporation ELISA). It is filed as cell-based. The settings on record: LDL containing reduced coenzyme Q10 (2.44-78.2 μg/ml) vs LDL control sample = 100%; 48 hours. The protocol:
Human LDL (BIODESIGN) and Medium 106S (Kurabo Industries, Ltd.), a basal medium for normal human skin fibroblasts, were mixed to prepare a LDL-containing medium. The reduced coenzyme Q10 obtained in Production Example 1 was dissolved into the LDL-containing medium at 50° C. with sonication. This was followed by membrane filtration, and the filtrate obtained was used as the test sample stock solution.
Likewise, the LDL-containing medium as is (without adding reduced coenzyme Q10) was subjected to membrane filtration and the filtrate obtained was used as the control sample stock solution. The LDL concentrations of the test sample stock solution and the control sample stock solution were same.
The concentration of reduced coenzyme Q10 in the test sample stock solution was measured by high performance liquid chromatography (column: length 25 cm, diameter 4.6 mm, YMC-PACK ODS-A (YMC), mobile phase: methanol-hexane (85:15, v/v), detection wavelength: 290 nm, flow rate: 1.0 mL/min). As a result, the weight percent of reduced coenzyme Q10 based on the total weight of coenzyme Q10 in the test sample stock solution was calculated to be 84.1% by weight, and the concentration of reduced coenzyme Q10 in the test sample stock solution was calculated to be 234.68 μg/ml. […]
(In general: Dividing cells build labelled thymidine or BrdU into new DNA.)

Marks after values point to notes of the source that are not given here.

`COC1=C(OC)C(=O)C(C/C=C(\C)CC/C=C(\C)CC/C=C(\C)CC/C=C(\C)CC/C=C(\C)CC/C=C(\C)CC/C=C(\C)CC/C=C(\C)CC/C=C(\C)CCC=C(C)C)=C(C)C1=O` [Oxidized coenzyme Q10, oxidized coenzyme Q10, reference compound]: the “intracellular ATP content compared with control group” value in data set [1] is reported as “decreased significantly”. Also, the ATP level in data set [2] (0.12 μg/ml) was 183.23 ± 62.70* nM; in data set [2] (0.98 μg/ml) it was 224.84 ± 43.55* nM. Further, the “intracellular ATP levels compared with solvent control” value in data set [2] is recorded as “significantly elevated”. For the same molecule, the toxic signs entry in the data set with rats is “no toxic signs were observed”.
Consider `COc1c(O)c(C)c(C/C=C(\C)CC/C=C(\C)CC/C=C(\C)CC/C=C(\C)CC/C=C(\C)CC/C=C(\C)CC/C=C(\C)CC/C=C(\C)CC/C=C(\C)CCC=C(C)C)c(O)c1OC` [Reduced coenzyme Q10, reduced coenzyme Q10], for which the “intracellular ATP content, reduced compared with oxidized coenzyme Q10” value in data set [1] (80 μg/ml each, P<0.05) is “significantly lower”. Besides, the “intracellular ATP content compared with control group” value in data set [1] was “decreased significantly”. In data set [3] (20 mg/kg by gavage), the “Number of ACFs, 1 crypt, percent of control group” value is “(71)** %”; the “Number of ACFs, 2 crypts, percent of control group” value is “(79) %”; the “Number of ACFs, 3 crypts, percent of control group” value is given as “(100) %”; the “Number of ACFs, 4 crypts or more, percent of control group” value is listed as “(97) %”. Further, in data set [3] (20 mg/kg by gavage), the “Total ACF number/large intestine specimen, percent of control group” value was “(80) %”; the “Total ACs number/large intestine specimen, percent of control group” value is on record as “(84) %”; the “Mean ACs number/focus” value is given as 1.77 ± 0.16; the “Number of ACFs formed in the large intestine, 1 crypt” value is reported as 47 ± 12. For the same molecule, in data set [3] (20 mg/kg by gavage), the “Number of ACFs formed in the large intestine, 2 crypts” value is given as 39 ± 9; the “Number of ACFs formed in the large intestine, 3 crypts” value was found to be 18 ± 12; the “Number of ACFs formed in the large intestine, 4 crypts or more” value is recorded as 7 ± 6; the “Total ACF number/large intestine specimen” value was 113 ± 32. In addition, the “Total ACs number/large intestine specimen” value in data set [3] (20 mg/kg by gavage) came to 214 ± 81. In addition, in data set [3] (50 mg/kg by gavage), the “Number of ACFs, 1 crypt, percent of control group” value was “(61)*** %”; the “Number of ACFs, 2 crypts, percent of control group” value is “(70)** %”; the “Number of ACFs, 3 crypts, percent of control group” value is recorded as “(80) %”; the “Number of ACFs, 4 crypts or more, percent of control group” value was “(78) %”. For the same molecule, in data set [3] (50 mg/kg by gavage), the “Total ACF number/large intestine specimen, percent of control group” value is listed as “(74)* %”; the “Total ACs number/large intestine specimen, percent of control group” value is “(71)* %”; the “Mean ACs number/focus” value was determined as 1.76 ± 0.33; the “Number of ACFs formed in the large intestine, 1 crypt” value is 40 ± 10. In data set [3] (50 mg/kg by gavage), the “Number of ACFs formed in the large intestine, 2 crypts” value is listed as 35 ± 11; the “Number of ACFs formed in the large intestine, 3 crypts” value is given as 15 ± 7; the “Number of ACFs formed in the large intestine, 4 crypts or more” value came to 6 ± 4; the “Total ACF number/large intestine specimen” value is 104 ± 26. Moreover, the “Total ACs number/large intestine specimen” value in data set [3] (50 mg/kg by gavage) is on record as 181 ± 54. In data set [3] (20 and 50 mg/kg by gavage, male F344 rats), the “gross condition, mortality, food consumption, and body weight during the treatment period” value is “no changes associated with administration of the test substance were observed”. Besides, the “total ACF number and total crypt number per large intestine specimen compared with the control group” value in data set [3] (20 and 50 mg/kg by gavage, statistically significant in the 50 mg/kg group) is recorded as “decreased”. Besides, in data set [3] (20 and 50 mg/kg by gavage, vs control group), the “total ACF number for 1-crypt ACF or 2-crypt ACF” value is recorded as “decreased significantly”. Also, the ATP level in data set [2] (0.12 μg/ml) is 277.21 ± 46.02**† nM. Also, in data set [2] (0.98 μg/ml), the ATP level is 267.24 ± 20.72** nM. Further, in data set [2], the “intracellular ATP levels compared with solvent control” value is “significantly elevated” and the “intracellular ATP levels, reduced compared with oxidized coenzyme Q10” value is “significantly elevated”. Besides, the “elevation of cell division activity (BrdU incorporated in the nucleus) induced by LDL” value in data set [4] was “suppressed”.
